According to US12036226B2, “Methods of treating subjects having diabetes with chronic kidney disease” (Poxel SA, priority 2018, dated 2024):
Like-named read-outs stand apart in the source and are kept apart here.

Experiment: Phase 1 study of pharmacokinetics and safety of imeglimin in subjects with renal impairment compared to normal renal function
Assay type: in vivo, human
Details: for concentration at 8 day / Vd/F / Tmax / Cmax / half-life / AUC / AUC(0-t) / CL renal: human, po; for concentration at 8 day / Vd/F / Tmax / Cmax / half-life / AUC / AUC(0-t): plasma; for Vd/F: read-out: Vz/F; for Tmax: median, read-out: tmax; for AUC: read-out: AUC0-τ; for CL renal: urine; for difference in exposure vs normal subjects: Day 8
Method: An open-label, parallel-group, multi-center, multiple oral dose study to investigate the pharmacokinetics of imeglimin in subjects with renal impairment compared to subjects with normal renal function was completed.
In this study, a total of 51 subjects received imeglimin at the daily dose of 1000 mg, administered either as 1000 mg QD (once a day) or 500 mg bid (twice a day) during 8 days. […] Twenty-four control subjects with normal renal function were matched to mild and moderate (10 receiving QD and 8 receiving bid regimen) and to severe (6 receiving bid regimen) renal impaired subjects. Measurement of the urine to plasma ratio of creatinine using 24 hours urine sampling was calculated (CLCrea).
Imeglimin was administered in the morning time during 8 consecutive days in the group of subjects receiving 1000 mg once a day and in the morning and evening time during 7 consecutive days followed by a morning administration of 500 mg in the morning time on Day 8 in the group of subjects receiving 500 mg twice a day. Morning administrations on Days 1 and 8 were performed on a fasted state, after a 10 hours overnight fasting and during 4 hours after imeglimin administration.
Inclusion Criteria: For subjects with normal renal functions: CLCrea>80 mL/min based on calculation using 24-hrs sampling on day −2. For subjects with impaired renal function: CLCrea 50 to 80 mL/min for subjects with mild renal impairment, 30 to <50 mL/min for subjects with moderate renal impairment, and <30 mL/min for subjects with severe renal impairment based on calculation using 24-hrs sampling on day −2.
Pharmacokinetic parameters included apparent volume of distribution during the terminal phase following extravascular administration (Vz/F), area under the curve of the plasma concentration as a function of time (AUC0-t), the maximum observed concentration (Cmax), the time to maximum concentration (tmax), the plasma half-life (t1/2), the total body clearance of drug from plasma following extravascular administration (CL/F), and other parameters.
The urinary excretion parameters of imeglimin in subjects with differing degrees of renal impairment following QD or bid oral doses of imeglimin on day 8 are summarized in Table 3 and Table 4. Parameters measured include amount of unchanged drug excreted in urine as a function of time (Ae0-t), renal clearance (CLR), and the amount of unchanged drug excreted in urine during one dosing interval (Ae0-τ), and the percentage of administered dose excreted in urine during one dosing interval (fe0-τ).
For the evaluation of safety and tolerability of multiple oral doses of 1000 mg imeglimin QD (i.e. a total dose of 8000 mg imeglimin) or 500 mg imeglimin BID (i.e. a total dose of 7500 mg imeglimin), laboratory tests (hematology, clinical chemistry, urinalysis), determination of vital signs, ECG recordings, questioning of AEs and physical examinations were performed. […] The incidence of AEs observed within the course of the study was low. Overall 31 out of 51 subjects reported 54 treatment emergent AEs. Of these, only 15 were judged as likely related to the study drug. The majority (39 AEs) were assessed as unlikely related. Based on these low incidence no clear differences between the dose regimens and between the renal impairment groups can be shown.

[1] = 500 mg, 500 mg bid oral, Day 8, Part 1 normal renal function (N = 8), geometric mean
[2] = 500 mg, 500 mg bid oral, Day 8, Part 2 CKD Stage 4 (severe renal impairment; N = 5), geometric mean
[3] = 500 mg, 500 mg bid oral, Day 8, Part 2 normal renal function (N = 6), geometric mean
[4] = 1000 mg, 1000 mg QD oral, Day 8, CKD Stage 3 (moderate renal impairment; N = 6), geometric mean
[5] = 1000 mg, 1000 mg QD oral, Day 8, CKD stage 2 (mild renal impairment; N = 5), geometric mean
[6] = 1000 mg, 1000 mg QD oral, Day 8, normal renal function (N = 8), geometric mean
[7] = 1000 mg, 1000 mg QD oral, Day 8, normal renal function (N = 10), geometric mean

C[C@H]1N=C(N(C)C)N=C(N)N1 [imeglimin, (6R)—N^2, N^2,6-trimethyl-3,6-dihydro-1,3,5-triazine-2,4-diamine]
concentration at 8 day (500 mg, 500 mg bid oral, Day 8, Part 1 CKD Stage 3 (moderate renal impairment; N = 6), geometric mean, read-out: Cav): 1430 ng/mL | Vd/F (500 mg, 500 mg bid oral, Day 8, Part 1 CKD Stage 3 (moderate renal impairment; N = 6), geometric mean): 922 L | Tmax (500 mg, 500 mg bid oral, Day 8, Part 1 CKD Stage 3 (moderate renal impairment; N = 6)): 3.5 h | Cmax [1]: 1030 ng/mL | half-life [1]: 13.2 h | AUC [1]: 7390 ng·h/mL | concentration at 8 day (500 mg, 500 mg bid oral, Day 8, Part 1 normal renal function (N = 8), geometric mean, read-out: Cav): 616 ng/mL | concentration at 8 day (500 mg, 500 mg bid oral, Day 8, Part 1 normal renal function (N = 8), geometric mean, read-out: Cmin): 202 ng/mL | Vd/F [1]: 1290 L | Tmax (500 mg, 500 mg bid oral, Day 8, Part 1 normal renal function (N = 8)): 3.5 h | Cmax [2]: 2860 ng/mL | half-life [2]: 17.6 h | AUC [2]: 24800 ng·h/mL | concentration at 8 day (500 mg, 500 mg bid oral, Day 8, Part 2 CKD Stage 4 (severe renal impairment; N = 5), geometric mean, read-out: Cav): 2070 ng/mL | Vd/F [2]: 511 L | Tmax (500 mg, 500 mg bid oral, Day 8, Part 2 CKD Stage 4 (severe renal impairment; N = 5)): 3.5 h | Cmax [3]: 998 ng/mL | half-life [3]: 15 h | AUC [3]: 6970 ng·h/mL | concentration at 8 day (500 mg, 500 mg bid oral, Day 8, Part 2 normal renal function (N = 6), geometric mean, read-out: Cav): 581 ng/mL | Vd/F [3]: 1550 L | Tmax (500 mg, 500 mg bid oral, Day 8, Part 2 normal renal function (N = 6)): 3.75 h | AUC(0-t) [4]: 29100 ng·h/mL | Cmax [4]: 2570 ng/mL | half-life [4]: 23.4 h | concentration at 8 day (1000 mg, 1000 mg QD oral, Day 8, CKD Stage 3 (moderate renal impairment; N = 6), geometric mean, read-out: Cav): 1210 ng/mL | concentration at 8 day (1000 mg, 1000 mg QD oral, Day 8, CKD Stage 3 (moderate renal impairment; N = 6), geometric mean, read-out: Cmin): 335 ng/mL | Vd/F [4]: 1160 L | Tmax (1000 mg, 1000 mg QD oral, Day 8, CKD Stage 3 (moderate renal impairment; N = 6)): 5 h | AUC(0-t) [5]: 20100 ng·h/mL | Cmax [5]: 2050 ng/mL | half-life [5]: 15 h | concentration at 8 day (1000 mg, 1000 mg QD oral, Day 8, CKD stage 2 (mild renal impairment; N = 5), geometric mean, read-out: Cav): 838 ng/mL | concentration at 8 day (1000 mg, 1000 mg QD oral, Day 8, CKD stage 2 (mild renal impairment; N = 5), geometric mean, read-out: Cmin): 178 ng/mL | Vd/F [5]: 1070 L | Tmax (1000 mg, 1000 mg QD oral, Day 8, CKD stage 2 (mild renal impairment; N = 5)): 4 h | half-life [6]: 16.4 h | Vd/F [6]: 1570 L | AUC(0-t) [7]: 15400 ng·h/mL | Cmax [7]: 1750 ng/mL | concentration at 8 day (1000 mg, 1000 mg QD oral, Day 8, normal renal function (N = 10), geometric mean, read-out: Cmin): 115 ng/mL | Tmax (1000 mg, 1000 mg QD oral, Day 8, normal renal function (N = 10)): 4 h | CL renal (500 mg, 500 mg bid oral, Day 8, CKD Stage 2 (mild renal impairment) (N = 4), geometric mean (CV %), read-out: CLR): 323 mL/min | CL renal (500 mg, 500 mg bid oral, Day 8, CKD Stage 3 (moderate renal impairment) (N = 6), geometric mean (CV %), read-out: CLR): 193 mL/min | CL renal (500 mg, 500 mg bid oral, Day 8, CKD Stage 4 (severe renal impairment) (N = 5), geometric mean (CV %), read-out: CLR): 140 mL/min | CL renal (500 mg, 500 mg bid oral, Day 8, normal renal function (N = 6), geometric mean (CV %), read-out: CLR): 548 mL/min | CL renal (500 mg, 500 mg bid oral, Day 8, normal renal function (N = 8), geometric mean (CV %), read-out: CLR): 501 mL/min | CL renal (1000 mg, 1000 mg QD oral, Day 8, CKD Stage 2 (mild renal impairment), N = 2, min, max, read-out: CLR (renal clearance)): 388 to 522 mL/min | CL renal (1000 mg, 1000 mg QD oral, Day 8, CKD Stage 3 (moderate renal impairment) (N = 6), geometric mean, read-out: CLR (renal clearance)): 197 mL/min | CL renal (1000 mg, 1000 mg QD oral, Day 8, normal renal function (N = 10), geometric mean, read-out: CLR (renal clearance)): 418 mL/min | difference in exposure vs normal subjects (mild renal impairment): up to 1.5 fold | difference in exposure vs normal subjects (moderate renal impairment): ≤ 2.3 fold | AEs assessed as unlikely related (of 54 treatment emergent AEs): 39 | AEs judged as likely related to the study drug (of 54 treatment emergent AEs): 15 | Steady-state attained by (repeated dosing of 1000 mg QD and 500 mg bid): ≤ 6 days | decrease in renal clearance vs normal subjects (severe renal impairment): ≤ 74% | decrease in total oral body clearance vs normal subjects (severe renal impairment): up to 72% | difference in exposure vs normal subjects (severe renal impairment): up to 3.6 fold | general safety and tolerability assessment (total daily dose of 1000 mg over 8 days): good or very good tolerability
